# Data as given in patent publication US8153408B2, “Biocatalytic racemisation of alpha-hydroxyketones” (BASF SE, priority 2006, dated 2012).
# How the values were obtained:
# [1] = test system: rehydrated lyophilised (resting) cells of Lactobacillus paracasei subsp. paracasei DSM 20207; test: Biocatalytic racemisation of acyloins 1-4 by whole resting cells; type: cell-based; settings: L. paracasei DSM 20207 cells; for Relative Rate (initial rate of racemisation relative to (R)-1 arbitrarily set as standard (100%)): aqueous BIS-TRIS buffer pH 6, 42° C.; for racemisation rate (in words): aqueous buffer at pH 6; for Racemization (extent of racemisation under standard conditions after 24 h): pH 6, 42° C.
# Experimental: (§1) After 3 days, the cells were harvested by centrifugation (18000*g), lyophilised and stored at +4° C. For the biocatalytic racemisation, 50 mg of whole lyophilised cells were rehydrated in 0.5 ml aqueous BIS-TRIS buffer (50 mM, 10^−2 M MgCl2, pH 6) for 1 h at 42° C. with shaking at 150 rpm. Substrates 1-4 (5 mg) were added followed by shaking of the reaction mixture with 150 rpm at 42° C. for 24 h, 48 h and 72 h. Then the reaction mixture was extracted with ethyl acetate and the organic phase was dried over sodium sulfate. The organic phase was evaporated under reduced pressure and the residue was dissolved in HPLC-eluent. The determination the enantiomeric excess of the substrate was carried out by HPLC on a chiral stationary phase. Analysis of the enantiomeric composition versus time gave the initial rates of racemisation, which are represented as % with respect to substrate (R)-1 sert as standard (100%).
# (§2) The biocatalytic racemisation of acyloins 1-4 was performed using rehydrated lyophilised (resting) cells of Lactobacillus paracasei subsp. paracasei DSM 20207 in aqueous buffer at pH 6, the racemisation of acyloins 5-6 by using rehydrated lyophilised (resting) cells of Lactobacillus halotoleransi DSM 20190.
# [2] = test system: rehydrated lyophilised (resting) cells of Lactobacillus halotoleransi DSM 20190; test: Biocatalytic racemisation of acyloins 5-6 by whole resting cells; type: cell-based, Lactobacillus halotolerans DSM 20190; settings: L. halotolerans DSM 20190 cells; for Relative Rate (initial rate of racemisation relative to (R)-1 arbitrarily set as standard (100%)): aqueous BIS-TRIS buffer pH 6, 42° C.; for Racemization (extent of racemisation under standard conditions after 24 h): pH 6, 42° C.
# Experimental: as §1, §2
SMILES,Relative Rate (initial rate of racemisation relative to (R)-1 arbitrarily set as standard (100%)) [1],racemisation rate (in words) [1],Racemization (extent of racemisation under standard conditions after 24 h) [1],racemisation (in words) [2],Relative Rate (initial rate of racemisation relative to (R)-1 arbitrarily set as standard (100%)) [2],Racemization (extent of racemisation under standard conditions after 24 h) [2]
"CC(=O)[C@@H](C)O [(R)-1, acetoin]",100%,fast racemisation rate,86%,,,
"CC(=O)[C@H](O)c1ccccc1 [(R)-3, (R)-phenylacetylcarbinol]",67%,High racemisation rates,50%,,,
"C[C@@H](O)C(=O)c1ccccc1 [(R)-4, (R)-2-hydroxypropiophenone]",65%,slightly reduced,46%,,,
"O=C1c2ccccc2CC[C@H]1O [(R)-5, (R)-2-Hydroxy-1,2,3,4-tetranaphtalin-1-one]",,,,high racemisation,77%,92%
"O=C1c2ccccc2C[C@H]1O [(R)-6, (R)-2-Hydroxyindane-1-one]",,,,high racemisation,58%,84%
